Assay results as given in paper PMC8074941, “Synthesis of cyclotetrapeptide analogues of c-PLAI and evaluation of their antimicrobial properties” (Royal Society Open Science, 2021).
In brackets after ≈: the same amount, converted by molar mass. Where two headings read alike, the source gives them in different places. Where a SMILES comes first, the peptide text is derived from it.

Assays:
B. cereus ATCC 11778 = experiment: microbe, parasite or virus in culture; conditions: for minimum inhibitory concentration (MIC) B. cereus ATCC 11778: ATCC 11778, 18 h
Procedure: (§1) Tools and materials were sterilized in an autoclave for 15 min at 121°C. Bacterial culture was grown in agar media (Mueller Hinton agar) by picking some bacterial colony using an inoculating loop, followed by incubation at 37°C for 24 h. Bacterial culture was then suspended in liquid media (Mueller Hinton Broth). The suspended bacterial culture was then incubated at 37°C for 24 h and standardized equal to 0.5 Mc Farland (2 × 10^8 CFU ml^−1). The culture was diluted into the concentration of 5 × 10^5 CFU ml^−1.
(§2) Six tetrapeptides and six cyclotetrapeptides were dissolved in DMSO 2% with a concentration of 1 µg mL^−1. Each solution was dissolved gradually. Subsequently, 12 sample solutions, ciprofloxacin, nystatin, ketoconazole and DMSO 2% were incubated on a 96-well microplate at 37°C for 18 h. The result was interpreted using a spectrophotometer, with a wavelength of 600 nm. MIC was measured as the percentage of microbial inhibition and cell death.

E. coli ATCC 11229 = experiment: microbe, parasite or virus in culture; conditions: for minimum inhibitory concentration (MIC) E. coli ATCC 11229: ATCC 11229, 18 h
Procedure: as §1, §2

K. pneumonia ATCC 2357 = experiment: microbe, parasite or virus in culture; conditions: for minimum inhibitory concentration (MIC) K. pneumonia ATCC 2357: ATCC 2357, 18 h
Procedure: as §1, §2

S. aureus ATCC 6538 = experiment: microbe, parasite or virus in culture; conditions: for minimum inhibitory concentration (MIC) S. aureus ATCC 6538: ATCC 6538, 18 h
Procedure: as §1, §2

[1] = head-to-tail lactamisation of linear tetrapeptide (N-terminal Pro amine + C-terminal Ile acid), HATU (2 equiv), DIPEA (3 equiv); conditions: the molecule shown is the open-chain precursor; 12-membered ring; CH2Cl2 (with ca. 0.2-0.5% DMF); 0.4 mM; 25.0 °C; 1.5 h
T. mentagrophyte = experiment: microbe, parasite or virus in culture; conditions: 18 h
Procedure: (§3) Tools and materials were sterilized in an autoclave for 15 min at 121°C. Fungal culture was grown in agar media (Potato Dextrose agar) by picking some fungal colony using an inoculating loop, followed by incubation at 30°C for 24–48 h. Fungal culture was then suspended in liquid media (Potato Dextrose Broth). The suspended fungal culture was then incubated for 24–48 h at 30°C. The suspended fungal culture was then incubated at 30°C for 24 h and standardized equal to 0.5 Mc Farland (2 × 10^8 CFU ml^−1). The culture was diluted into the concentration of 5 × 10^5 CFU ml^−1.
as §2

C. albicans ATCC 10231 = system: C. albicans ATCC 10231
Procedure: as §3, §2

Compound	minimum inhibitory concentration (MIC) E. coli ATCC 11229 (E. coli ATCC 11229)	minimum inhibitory concentration (MIC) K. pneumonia ATCC 2357 (K. pneumonia ATCC 2357)	minimum inhibitory concentration (MIC) S. aureus ATCC 6538 (S. aureus ATCC 6538)	minimum inhibitory concentration (MIC) C. albicans ATCC 10231 (C. albicans ATCC 10231; ATCC 10231, 18 h)	further results
O=C(O)c1cn(C2CC2)c2cc(N3CCNCC3)c(F)cc2c1=O [Ciprofloxacin, reference compound]	–	–	–	–	MIC (B. cereus ATCC 11778; Bacillus cereus, ATCC11778, 18 h, read-out: minimum inhibitory concentration (MIC) B. cereus ATCC 11778): 0.195 µg/mL (≈ 0.589 µM); MIC (E. coli ATCC 11229; Escherichia coli, ATCC11229, 18 h, read-out: minimum inhibitory concentration (MIC) E. coli ATCC 11229): 1.56 µg/mL (≈ 4.71 µM); MIC (K. pneumonia ATCC 2357; Klebsiella pneumoniae, ATCC2357, 18 h, read-out: minimum inhibitory concentration (MIC) K. pneumonia ATCC 2357): 0.391 µg/mL (≈ 1.18 µM); MIC (S. aureus ATCC 6538; Staphylococcus aureus, ATCC6538, 18 h, read-out: minimum inhibitory concentration (MIC) S. aureus ATCC 6538): 0.098 µg/mL (≈ 0.296 µM)
CC[C@H](C)[C@H](NC(=O)[C@H](C)NC(=O)[C@H](CC(C)C)NC(=O)[C@@H]1CCCN1)C(=O)O [H-Pro-Leu-Ala-Ile-OH]	–	–	–	–	ring closure, isolated yield [1]: 70%
CC[C@H](C)[C@H](NC(=O)[C@H](Cc1ccccc1)NC(=O)[C@H](CC(C)C)NC(=O)[C@@H]1CCCN1)C(=O)O [H-Pro-Leu-Phe-Ile-OH]	–	–	–	–	ring closure, isolated yield [1]: 46%
CC(=O)N1CCN(c2ccc(OCC3COC(Cn4ccnc4)(c4ccc(Cl)cc4Cl)O3)cc2)CC1 (stereo not drawn) [Ketokonazole, reference compound]	–	–	–	–	MIC (T. mentagrophyte; Trichophyton mentagrophytes, read-out: minimum inhibitory concentration (MIC) T. mentagrophyte): 312 µg/mL (≈ 588 µM)
C[C@@H]1[C@H](O)[C@@H](C)/C=C/C=C/CC/C=C/C=C/C=C/C=C/C(O[C@H]2O[C@H](C)[C@@H](O)[C@H](N)[C@@H]2O)CC2O[C@](O)(CC(O)C(O)CCC(O)CC(O)CC(O)CC(=O)O[C@H]1C)CC(O)C2C(=O)O (stereo partly drawn) [Nystatin, reference compound]	–	–	–	–	minimum inhibitory concentration (MIC) C. albicans ATCC 10231 (C. albicans ATCC 10231; Potato Dextrose Broth, 5 × 10^5 CFU ml^−1, DMSO 2%, 96-well microplate, 37°C, 18 h, read at 600 nm, single experiment): 4.88 µg/mL (≈ 5.27 µM)

Continued, in another order:

minimum inhibitory concentration (MIC) E. coli ATCC 11229 (E. coli ATCC 11229)	minimum inhibitory concentration (MIC) K. pneumonia ATCC 2357 (K. pneumonia ATCC 2357)	minimum inhibitory concentration (MIC) S. aureus ATCC 6538 (S. aureus ATCC 6538)	minimum inhibitory concentration (MIC) C. albicans ATCC 10231 (C. albicans ATCC 10231; ATCC 10231, 18 h)	Compound	further results
250 µg/mL (≈ 585 µM)	500 µg/mL (≈ 1170 µM)	500 µg/mL (≈ 1170 µM)	250 µg/mL (≈ 585 µM)	CC[C@H](C)[C@H](NC(=O)[C@H](C)NC(=O)[C@H](CCCCN)NC(=O)[C@@H]1CCCN1)C(=O)O [PKAI] (H-PKAI-OH)	minimum inhibitory concentration (MIC) B. cereus ATCC 11778 (B. cereus ATCC 11778): 500 µg/mL (≈ 1170 µM); minimum inhibitory concentration (MIC) T. mentagrophyte (T. mentagrophyte): 500 µg/mL (≈ 1170 µM)
250 µg/mL (≈ 496 µM)	500 µg/mL (≈ 993 µM)	250 µg/mL (≈ 496 µM)	250 µg/mL (≈ 496 µM)	CC[C@H](C)[C@H](NC(=O)[C@H](Cc1ccccc1)NC(=O)[C@H](CCCCN)NC(=O)[C@@H]1CCCN1)C(=O)O [PKFI] (H-PKFI-OH)	minimum inhibitory concentration (MIC) B. cereus ATCC 11778 (B. cereus ATCC 11778): 250 µg/mL (≈ 496 µM); minimum inhibitory concentration (MIC) T. mentagrophyte (T. mentagrophyte): 500 µg/mL (≈ 993 µM)
>1000 µg/mL	250 µg/mL (≈ 606 µM)	>1000 µg/mL	>1000 µg/mL	CC[C@H](C)[C@H](NC(=O)[C@H](C)NC(=O)[C@H](CC(C)C)NC(=O)[C@@H]1CCCN1)C(=O)O [PLAI] (H-PLAI-OH)	–
